Assay results taken from ChEMBL document CHEMBL4368940, “Development of a novel NURR1/NOT agonist from hit to lead and candidate for the potential treatment of Parkinson's disease” (Bioorg Med Chem Lett, 2019).
Calls of active or inactive are those of the source. The rule behind the calls is not given here.

Tests used:
Rattus norvegicus [1] = organism: Rattus norvegicus; assay: Neuroprotective activity in poly(I:C)-induced Sprague-Dawley rat Parkinson's disease lesion model assessed as reduction in brain gliosis; format: functional, organism-based
[2] = Apparent half-life of the terminal disposition phase in C57BL/6 mouse brain at 10 mg/kg, po administered as single dose; format: ADME, organism-based; conditions: read-out: t1/2 lambda z (converted)
[3] = Cardiotoxicity in iv dosed anaesthetized guinea pig assessed as electrophysiological changes administered as single dose measured after 5 mins; format: toxicity, organism-based, Cavia porcellus; conditions: in vivo
[4] = Tmax in C57BL/6 mouse plasma at 10 mg/kg, po administered as single dose; format: ADME, organism-based
[5] = Cardiotoxicity in iv dosed anaesthetized dog assessed as electrophysiological changes administered as single dose measured after 5 mins; format: toxicity, organism-based, Canis lupus familiaris; conditions: in vivo
[6] = target: Nuclear receptor subfamily 4 group A member 2 (Mus musculus) (UniProt Q06219); assay: Agonist activity at Nurr1 in mouse MG7 cells assessed as inhibition of LPS-induced IL1beta secretion at 3 uM; format: cell-based
[7] = Apparent half-life of the terminal disposition phase in C57BL/6 mouse brain at 3 mg/kg, iv administered as single dose; format: ADME, organism-based; conditions: read-out: t1/2 lambda z (converted)
[8] = Cmax in C57BL/6 mouse brain at 3 mg/kg, iv administered as single dose; format: ADME, organism-based; parameters: dose 3 mg/kg, route intravenous
[9] = Cmax in C57BL/6 mouse brain at 10 mg/kg, po administered as single dose; format: ADME, organism-based; parameters: dose 10 mg/kg, route oral
[10] = target: Nuclear receptor subfamily 4 group A member 2 (Rattus norvegicus) (UniProt Q07917); assay: Agonist activity at Nurr1 in rat mesencephalic primary neurons assessed as increase in tyrosine hydroxylase expression at 3 uM
[11] = Ratio of AUC in C57BL/6 mouse brain to plasma at 10 mg/kg, po administered as single dose; format: ADME, organism-based; conditions: read-out: Ratio AUC
[12] = Cardiotoxicity in iv dosed anaesthetized guinea pig assessed as electrocardiographic changes administered as single dose measured after 5 mins; format: toxicity, organism-based, Cavia porcellus; conditions: in vivo
[13] = Apparent half-life of the terminal disposition phase in C57BL/6 mouse plasma at 10 mg/kg, po administered as single dose; format: ADME, organism-based; conditions: read-out: t1/2 lambda z (converted)
[14] = AUC in C57BL/6 mouse brain at 10 mg/kg, po administered as single dose; format: ADME, organism-based
[15] = Clearance in human hepatocytes assessed per million cells; format: ADME, cell-based, Hepatocyte
[16] = Cmax in C57BL/6 mouse plasma at 3 mg/kg, iv administered as single dose; format: ADME, organism-based; parameters: dose 3 mg/kg, route intravenous
Canis familiaris = assay: Hemodynamic activity iv dosed anaesthetized dog administered as single dose measured after 5 mins; format: ADME, organism-based, Canis lupus familiaris; conditions: in vivo
[17] = Apparent half-life of the terminal disposition phase in C57BL/6 mouse plasma at 3 mg/kg, iv administered as single dose; format: ADME, organism-based; conditions: in vivo
[18] = Cardiotoxicity in iv dosed anaesthetized dog assessed as electrocardiographic changes administered as single dose measured after 5 mins; format: toxicity, organism-based, Canis lupus familiaris; conditions: in vivo
[19] = AUC in C57BL/6 mouse brain at 3 mg/kg, iv administered as single dose; format: ADME, organism-based
[20] = Ratio of AUC in C57BL/6 mouse brain to plasma at 3 mg/kg, iv administered as single dose; format: ADME, organism-based; conditions: read-out: Ratio AUC
Rattus norvegicus [21] = assay: Antiinflammatory activity in Sprague-Dawley rat assessed as inhibition of LPS-induced TNFalpha release at 30 mg/kg; format: functional
[22] = Drug level in anaesthetized guinea pig heart administered as single iv dose; format: ADME, organism-based, Cavia porcellus; conditions: in vivo, read-out: Drug uptake
[23] = Drug level in anaesthetized dog heart administered as single iv dose; format: ADME, organism-based, Canis lupus familiaris; conditions: in vivo, read-out: Drug uptake
[24] = AUC in C57BL/6 mouse plasma at 3 mg/kg, iv administered as single dose; format: ADME, organism-based
[25] = AUC in C57BL/6 mouse plasma at 10 mg/kg, po administered as single dose; format: ADME, organism-based
Cavia porcellus = assay: Hemodynamic activity iv dosed anaesthetized guinea pig administered as single dose measured after 5 mins; format: ADME, organism-based; conditions: in vivo
[26] = target: Nuclear receptor subfamily 4 group A member 2 (Homo sapiens, UniProt P43354); assay: Agonist activity at full-length Gal4-fused NOT (unknown origin) expressed in CHO cells by luciferase reporter gene assay; format: cell-based; conditions: read-out: EC50
[27] = target: Voltage-gated inwardly rectifying potassium channel KCNH2 (Homo sapiens, UniProt Q12809); assay: Inhibition of human ERG
[28] = Cmax in C57BL/6 mouse plasma at 10 mg/kg, po administered as single dose; format: ADME, organism-based; parameters: dose 10 mg/kg, route oral
[29] = target: Nuclear receptor subfamily 4 group A member 2 (Mus musculus) (UniProt Q06219); assay: Agonist activity at Nurr1 in co-culture of mouse primary neurons and microglia assessed as inhibition of LPS-induced neurotoxicity by measuring neuroprotection at 3 uM; parameters: scale not given: the % may be the effect or the level left
Rattus norvegicus [30] = organism: Rattus norvegicus; assay: Neuroprotective activity in poly(I:C)-induced Sprague-Dawley rat Parkinson's disease lesion model assessed as reduction in IL6 level; format: functional, organism-based

Sequence of Nuclear receptor subfamily 4 group A member 2 (Mus musculus) (Q06219 whole entry): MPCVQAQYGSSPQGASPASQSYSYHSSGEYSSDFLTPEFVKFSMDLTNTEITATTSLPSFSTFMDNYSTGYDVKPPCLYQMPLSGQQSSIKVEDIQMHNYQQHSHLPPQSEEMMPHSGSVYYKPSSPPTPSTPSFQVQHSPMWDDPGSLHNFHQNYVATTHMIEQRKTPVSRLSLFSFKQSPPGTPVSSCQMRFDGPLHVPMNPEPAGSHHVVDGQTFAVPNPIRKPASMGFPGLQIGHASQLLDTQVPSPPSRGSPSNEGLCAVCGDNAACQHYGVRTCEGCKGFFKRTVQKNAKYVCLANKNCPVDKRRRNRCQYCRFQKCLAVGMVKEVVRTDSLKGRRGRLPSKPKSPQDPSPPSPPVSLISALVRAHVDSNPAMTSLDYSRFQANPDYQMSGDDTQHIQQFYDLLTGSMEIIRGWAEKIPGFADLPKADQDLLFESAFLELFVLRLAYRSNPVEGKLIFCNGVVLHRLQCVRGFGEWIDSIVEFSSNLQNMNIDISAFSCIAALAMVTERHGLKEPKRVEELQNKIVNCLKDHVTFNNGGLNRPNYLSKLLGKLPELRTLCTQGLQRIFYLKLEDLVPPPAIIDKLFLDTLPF
Sequence of Nuclear receptor subfamily 4 group A member 2 (P43354 whole entry, the tested form may be a part): as the sequence (Q06219 whole entry) above, with S131T, S134G, D354E counted along it
Sequence of Voltage-gated inwardly rectifying potassium channel KCNH2 (Q12809 whole entry): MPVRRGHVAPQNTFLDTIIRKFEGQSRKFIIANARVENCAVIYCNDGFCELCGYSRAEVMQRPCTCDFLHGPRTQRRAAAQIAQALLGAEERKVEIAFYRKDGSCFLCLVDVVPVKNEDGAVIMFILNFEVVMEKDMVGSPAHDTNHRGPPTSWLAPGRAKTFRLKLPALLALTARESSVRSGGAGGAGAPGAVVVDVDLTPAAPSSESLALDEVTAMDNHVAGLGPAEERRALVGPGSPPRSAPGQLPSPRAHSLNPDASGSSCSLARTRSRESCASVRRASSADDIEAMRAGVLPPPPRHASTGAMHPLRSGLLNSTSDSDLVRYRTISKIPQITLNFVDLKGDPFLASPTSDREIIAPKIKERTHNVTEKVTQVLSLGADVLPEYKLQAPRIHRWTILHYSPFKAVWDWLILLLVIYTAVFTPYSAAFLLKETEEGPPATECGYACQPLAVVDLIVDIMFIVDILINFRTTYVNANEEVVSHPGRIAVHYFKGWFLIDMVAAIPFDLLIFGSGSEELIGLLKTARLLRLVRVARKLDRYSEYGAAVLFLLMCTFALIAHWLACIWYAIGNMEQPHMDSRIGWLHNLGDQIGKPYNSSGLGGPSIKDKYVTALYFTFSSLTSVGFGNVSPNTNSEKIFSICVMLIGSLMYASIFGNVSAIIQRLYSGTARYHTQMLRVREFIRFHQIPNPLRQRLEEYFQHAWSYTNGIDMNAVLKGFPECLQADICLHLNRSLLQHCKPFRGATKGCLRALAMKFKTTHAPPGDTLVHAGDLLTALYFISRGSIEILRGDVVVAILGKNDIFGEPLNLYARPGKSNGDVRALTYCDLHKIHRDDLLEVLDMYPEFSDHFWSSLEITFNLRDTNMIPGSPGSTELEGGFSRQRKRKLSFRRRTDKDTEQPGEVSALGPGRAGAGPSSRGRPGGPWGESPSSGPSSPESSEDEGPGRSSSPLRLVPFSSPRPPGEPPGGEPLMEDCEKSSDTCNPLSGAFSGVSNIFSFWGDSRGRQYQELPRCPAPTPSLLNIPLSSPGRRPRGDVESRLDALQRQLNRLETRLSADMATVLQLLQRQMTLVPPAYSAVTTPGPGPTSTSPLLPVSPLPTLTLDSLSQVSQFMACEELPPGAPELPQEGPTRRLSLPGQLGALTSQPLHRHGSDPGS
Sequence of Nuclear receptor subfamily 4 group A member 2 (Rattus norvegicus) (Q07917 whole entry): as the sequence (Q06219 whole entry) above, with S134G, P182R counted along it

CC(C)(O)c1cccc(-c2ccc3nc(-c4ccc(Cl)cc4)cn3c2)c1
Activity (Rattus norvegicus [1]): Active | half-life [2]: 197 h | Activity [3]: Non-Toxic | Tmax [4]: 24 h | Activity [5]: Non-Toxic | inhibition [6]: 28 to 46% | half-life [7]: 91.2 h | Cmax [8]: 2630 ng/mL | Cmax [9]: 3080 ng/mL | Activity [10]: 188 to 284% | Kp [11]: 0.8 | Activity [12]: Non-Toxic | half-life [13]: 194 h | AUC [14]: 55600 ng·h/mL | CLH [15]: 0.051 mL/h | Cmax [16]: 4870 ng/mL | Activity (Canis familiaris): Non-Toxic | t1/2 lambda z [17]: 98.4 h | Activity [18]: Non-Toxic | AUC [19]: 15000 ng·h/mL | Kp [20]: 0.7 | inhibition in vivo at 30 mg/kg (Rattus norvegicus [21]): 47% | concentration [22]: ≤ 17 µM | concentration [23]: 40 µM | AUC [24]: 20600 ng·h/mL | AUC [25]: 70300 ng·h/mL | Activity (Cavia porcellus): Non-Toxic | EC50 [26]: 218 nM | IC50 [27]: 1500 nM | Cmax [28]: 4170 ng/mL | Activity [29]: 86 to 99% | Activity (Rattus norvegicus [30]): Active
